Among the data in US12421205B2, “GLP-1 receptor agonist” (HYUNDAI PHARM CO., LTD., priority 2019, dated 2025) are EC50 and inhibition values, retold here.

One may read the EC50 as the midpoint of the concentration-response curve. As usually defined, the inhibition is the change of the read-out against control, counted positive when it falls.

One data set deals with T1, human GLP-1 receptor (Homo sapiens, UniProt P43220).
T1 construct: host or cells: CHO-K1
The data set is described as follows: cAMP activity test (cAMP dynamic HTRF kit) in CHO-K1/GLP-1 receptor-expressing cells. The format is cell-based. Put shortly: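 Cells in HBSS with 0.1% BSA, 0.5 mM IBMX and 5 mM HEPES, then lysed; cAMP-d2 and anti-cAMP cryptate added for 3 h. HTRF read-out, where FRET signal is inversely proportional to intracellular cAMP.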
A general note: In TR-FRET formats the signal depends on donor and acceptor labels being close together.

For the next data set, the target named is T2, hERG (Homo sapiens, UniProt Q12809).
T2 construct: purchased Invitrogen PV5365
T2 sequence (Q12809 whole entry): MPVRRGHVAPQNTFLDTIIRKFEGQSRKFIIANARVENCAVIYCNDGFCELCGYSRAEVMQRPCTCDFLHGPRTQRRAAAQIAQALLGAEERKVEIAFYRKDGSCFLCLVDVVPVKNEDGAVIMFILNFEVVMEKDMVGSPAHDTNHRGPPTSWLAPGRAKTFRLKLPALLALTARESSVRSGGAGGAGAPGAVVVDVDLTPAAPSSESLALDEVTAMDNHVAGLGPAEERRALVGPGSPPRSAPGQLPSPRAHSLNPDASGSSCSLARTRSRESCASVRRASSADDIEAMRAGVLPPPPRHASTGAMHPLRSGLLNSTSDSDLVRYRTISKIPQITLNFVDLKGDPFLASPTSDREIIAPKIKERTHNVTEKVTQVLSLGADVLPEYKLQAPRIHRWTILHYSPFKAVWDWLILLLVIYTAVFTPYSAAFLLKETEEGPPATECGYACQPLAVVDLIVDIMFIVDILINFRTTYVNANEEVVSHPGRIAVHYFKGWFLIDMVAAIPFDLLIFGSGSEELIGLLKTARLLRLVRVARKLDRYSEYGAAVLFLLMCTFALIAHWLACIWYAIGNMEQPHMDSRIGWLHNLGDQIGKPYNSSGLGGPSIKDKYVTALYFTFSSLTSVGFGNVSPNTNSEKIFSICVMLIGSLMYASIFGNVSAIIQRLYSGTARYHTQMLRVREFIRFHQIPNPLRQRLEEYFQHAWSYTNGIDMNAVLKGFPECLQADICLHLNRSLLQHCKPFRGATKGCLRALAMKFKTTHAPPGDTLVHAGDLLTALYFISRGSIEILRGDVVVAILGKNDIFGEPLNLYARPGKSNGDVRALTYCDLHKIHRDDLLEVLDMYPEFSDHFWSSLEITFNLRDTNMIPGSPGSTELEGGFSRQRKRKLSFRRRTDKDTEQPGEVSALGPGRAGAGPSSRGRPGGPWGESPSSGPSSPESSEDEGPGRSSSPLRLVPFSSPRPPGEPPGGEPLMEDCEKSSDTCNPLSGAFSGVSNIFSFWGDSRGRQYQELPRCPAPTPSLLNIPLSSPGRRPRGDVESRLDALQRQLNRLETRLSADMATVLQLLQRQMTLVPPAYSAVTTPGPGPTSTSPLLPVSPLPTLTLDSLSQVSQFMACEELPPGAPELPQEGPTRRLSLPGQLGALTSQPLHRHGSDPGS
The data set is described as follows: hERG inhibition test (Predictor hERG Fluorescence Polarization assay kit). The format is binding. The following applies: probe kit Tracer (fluorescent hERG ligand), hERG % inhibition at 10 uM, relative to E-4031 and solvent control. In outline:
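Competitive fluorescence-polarization binding of fluorescent tracer to hERG membrane preparation, 2.5 h at room temperature, mP read at 531/579 nm. % inhibition at 10 uM test compound, scaled between solvent control (0%) and E-4031 (100%).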

Where [1] appears, read: cAMP activity, CHO-K1/GLP-1 receptor-expressing cells, read-out: EC50.

Where two headings read alike, the source gives them in different places. Where only a bound is given, the exact number is not on record here.

T1 sequence (P43220 24-463): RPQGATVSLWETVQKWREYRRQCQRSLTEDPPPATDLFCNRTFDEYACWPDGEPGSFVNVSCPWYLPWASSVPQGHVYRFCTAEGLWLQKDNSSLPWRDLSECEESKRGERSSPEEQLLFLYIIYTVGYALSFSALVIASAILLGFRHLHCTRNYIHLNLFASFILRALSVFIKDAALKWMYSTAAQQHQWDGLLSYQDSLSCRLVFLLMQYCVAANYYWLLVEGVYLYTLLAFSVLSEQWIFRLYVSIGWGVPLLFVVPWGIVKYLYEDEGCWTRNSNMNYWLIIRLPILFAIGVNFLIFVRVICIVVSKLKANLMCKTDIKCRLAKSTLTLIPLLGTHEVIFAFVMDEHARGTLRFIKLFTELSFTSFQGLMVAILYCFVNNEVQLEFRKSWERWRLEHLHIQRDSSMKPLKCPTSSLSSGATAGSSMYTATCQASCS

Regarding `N#Cc1ccc(COc2cccc(-c3ccn(Cc4nc5ccc(C(=O)O)cc5n4C[C@@H]4CCCO4)c(=O)c3)n2)c(F)c1` [Example 109, (S)-2-((4-(6-(4-cyano-2-fluorobenzyloxy)pyridin-2-yl)-2-oxopyridin-1(2H)-yl)methyl)-1-((tetrahydrofuran-2-yl)methyl)-1H-benzo[d]imidazole-6-carboxylic acid], the EC50 on human GLP-1 receptor (setting [1]) came out at 130 nM. On hERG, the inhibition at 2.5 h, 10 µM was 6.49%.
The like results for `COCCn1c(Cc2ccc(-c3cccc(OCc4ccc(C#N)cc4F)n3)cc2F)nc2ccc(C(=O)O)cc21` [Example 25, 2-(4-(6-(4-cyano-2-fluorobenzyloxy)pyridin-2-yl)-2-fluorobenzyl)-1-(2-methoxyethyl)-1H-benzo[d]imidazole-6-carboxylic acid] were, in that order, 43 nM and 18.9%.
For `O=C(O)c1ccc2nc(Cc3ccc(-c4cccc(OCc5ccc(Cl)cc5F)c4)cc3)n(CC3CCCO3)c2c1` (stereo not shown) [Example 24, 2-((3′-(4-chloro-2-fluorobenzyloxy)biphenyl-4-yl)methyl)-1-((tetrahydrofuran-2-yl)methyl)-1H-benzo[d]imidazole-6-carboxylic acid], in that order: 130 nM and -7.68%.
For `O=C(O)c1ccc2nc(Cc3ccc(-c4cccc(OCc5ccc(Cl)cc5)n4)c(F)c3)n(C[C@@H]3CCO3)c2c1` [Example 123, (S)-2-(4-(6-((4-chlorobenzyl)oxy)pyridin-2-yl)-3-fluorobenzyl)-1-(oxetan-2-ylmethyl)-1H-benzo[d]imidazole-6-carboxylic acid], in that order: 14 nM and -0.45%.
As to `N#Cc1ccc(COc2cccc(-c3ccc(Cc4nc5ccc(C(=O)O)cc5n4Cc4ccco4)cc3)n2)c(F)c1` [Example 18, 2-(4-(6-(4-cyano-2-fluorobenzyloxy)pyridin-2-yl)benzyl)-1-(furan-2-ylmethyl)-1H-benzo[d]imidazole-6-carboxylic acid], on human GLP-1 receptor (setting [1]), the EC50 was 110 nM. Besides, the inhibition at 2.5 h, 10 µM on hERG is 7.37%.
The like results for `O=C(O)c1ccc2nc(Cc3ccc(-c4cccc(OCc5ccc(Cl)cc5F)n4)c(F)c3)n(Cc3cnco3)c2c1` [Example 35, 2-(4-(6-(4-chloro-2-fluorobenzyloxy)pyridin-2-yl)-3-fluorobenzyl)-1-(oxazol-5-ylmethyl)-1H-benzo[d]imidazole-6-carboxylic acid] were, in that order, 9 nM and -3.82%.
For `N#Cc1ccc(COc2cccc(-c3ccc(Cc4nc5ccc(C(=O)O)cc5n4CC4CCCO4)cc3F)n2)c(F)c1` (stereo not shown) [Example 130, 2-(4-(6-((4-cyano-2-fluorobenzyl)oxy)pyridin-2-yl)-3-fluorobenzyl)-1-((tetrahydrofuran-2-yl)methyl)-1H-benzo[d]imidazole-6-carboxylic acid], in that order: 21 nM and -6.76%.
Regarding `N#Cc1ccc(COc2cccc(-c3ccc(Cc4nc5ccc(C(=O)O)cc5n4CCF)c(F)c3)c2)c(F)c1` [Example 57, 2-((3′-(4-cyano-2-fluorobenzyloxy)-3-fluorobiphenyl-4-yl)methyl)-1-(2-fluoroethyl)-1H-benzo[d]imidazole-6-carboxylic acid], on human GLP-1 receptor (setting [1]), the EC50 is 850 nM. Also, the inhibition at 2.5 h, 10 µM at hERG was 6.42%.
Consider `N#Cc1ccc(COc2cccc(-c3cc(F)c(Cc4nc5ccc(C(=O)O)cc5n4C[C@@H]4CCO4)cc3F)n2)c(F)c1` [Example 115, (S)-2-(4-(6-((4-cyano-2-fluorobenzyl)oxy)pyridin-2-yl)-2,5-difluorobenzyl)-1-(oxetan-2-ylmethyl)-1H-benzo[d]imidazole-6-carboxylic acid], for which the EC50 at human GLP-1 receptor (setting [1]) was below 3.2 nM. The inhibition at 2.5 h, 10 µM on hERG was -2.45%.
As for `COCCn1c(Cc2ccc(-c3cccc(OCc4ccc(C#N)cc4F)n3)c(F)c2)nc2ccc(C(=O)O)cc21` [Example 38, 2-(4-(6-(4-cyano-2-fluorobenzyloxy)pyridin-2-yl)-3-fluorobenzyl)-1-(2-methoxyethyl)-1H-benzo[d]imidazole-6-carboxylic acid], the midpoint of the response at human GLP-1 receptor, the EC50, lay at 140 nM. Also, the inhibition at 2.5 h, 10 µM on hERG was 9.5%.
As for `O=C(O)c1ccc2nc(Cc3ccc(-c4cccc(OCc5ccc([N+](=O)[O-])cc5)n4)cc3F)n(CC3CCCO3)c2c1` (stereo not shown) [Example 88, 2-(2-fluoro-4-(6-(4-nitrobenzyloxy)pyridin-2-yl)benzyl)-1-((tetrahydrofuran-2-yl)methyl)-1H-benzo[d]imidazole-6-carboxylic acid], the EC50 on human GLP-1 receptor (setting [1]) stood at 16 nM. Further, the inhibition at 2.5 h, 10 µM at hERG was 22.1%.
The like results for `N#Cc1ccc(COc2cc(-c3ccc(Cc4nc5ccc(C(=O)O)cc5n4CC4CCCO4)cc3F)ccc2F)c(F)c1` (stereo not shown) [Example 93, 2-((3′-(4-cyano-2-fluorobenzyloxy)-2,4′-difluorobiphenyl-4-yl)methyl)-1-((tetrahydrofuran-2-yl)methyl)-1H-benzo[d]imidazole-6-carboxylic acid] were, in that order, 1100 nM and 8.9%.
For the compound `O=C(O)c1ccc2nc(Cc3ccc(-c4cccc(OCc5ccc(F)cc5F)n4)c(F)c3)n(C[C@@H]3CCO3)c2c1` [Example 119, (S)-2-(4-(6-((2,4-difluorobenzyl)oxy)pyridin-2-yl)-3-fluorobenzyl)-1-(oxetan-2-ylmethyl)-1H-benzo[d]imidazole-6-carboxylic acid], the EC50 at human GLP-1 receptor (setting [1]) came to 12 nM. For the same compound, on hERG, the inhibition at 2.5 h, 10 µM is 4.13%.
For `O=C(O)c1ccc2nc(Cc3ccc(-c4cccc(OCc5ccc(Cl)cc5F)n4)cc3)n(CC3CCCO3)c2c1` (stereo not shown) [Example 10, 2-(4-(6-(4-chloro-2-fluorobenzyloxy)pyridin-2-yl)benzyl)-1-((tetrahydrofuran-2-yl)methyl)-1H-benzo[d]imidazole-6-carboxylic acid], in that order: 24 nM and -7.54%.
Take `O=C(O)c1ccc2nc(Cc3cc(F)c(-c4cccc(OCc5ccc(Cl)cc5F)n4)cc3F)n(CC3CCCO3)c2c1` (stereo not shown) [Example 70, 2-(4-(6-(4-chloro-2-fluorobenzyloxy)pyridin-2-yl)-2,5-difluorobenzyl)-1-((tetrahydrofuran-2-yl)methyl)-1H-benzo[d]imidazole-6-carboxylic acid]: the EC50 at human GLP-1 receptor (setting [1]) was below 3.2 nM. Moreover, on hERG, the inhibition at 2.5 h, 10 µM was -6.14%.
With `N#Cc1ccc(COc2cccc(-c3ccc(Cc4nc5ccc(C(=O)O)cc5n4C[C@H]4CCCO4)cc3F)c2)c(F)c1` [Example 47, (R)-2-((3′-(4-cyano-2-fluorobenzyloxy)-2-fluorobiphenyl-4-yl)methyl)-1-((tetrahydrofuran-2-yl)methyl)-1H-benzo[d]imidazole-6-carboxylic acid], the EC50 on human GLP-1 receptor (setting [1]) is 1300 nM. Also, at hERG, the inhibition at 2.5 h, 10 µM is -17.1%.
For `O=C(O)c1ccc2nc(Cc3ccc(-c4cccc(OCc5ccc(F)c(F)c5)n4)c(F)c3)n(C[C@@H]3CCO3)c2c1` [Example 125, (S)-2-(4-(6-((3,4-difluorobenzyl)oxy)pyridin-2-yl)-3-fluorobenzyl)-1-(oxetan-2-ylmethyl)-1H-benzo[d]imidazole-6-carboxylic acid], in that order: 37 nM and -19.5%.
The like results for `O=C(O)c1ccc2nc(Cc3ccc(-c4cccc(OCc5ccc(Cl)cc5F)n4)c(F)c3)n(Cc3cccs3)c2c1` [Example 50, 2-(4-(6-(4-chloro-2-fluorobenzyloxy)pyridin-2-yl)-3-fluorobenzyl)-1-(thiophen-2-ylmethyl)-1H-benzo[d]imidazole-6-carboxylic acid] were, in that order, 15 nM and 4.72%.
As for `N#Cc1ccc(COc2cccc(-c3ccc(Cc4nc5ccc(C(=O)O)cc5n4CC4CCO4)cc3F)n2)c(F)c1` (stereo not shown) [Example 114, 2-(4-(6-((4-cyano-2-fluorobenzyl)oxy)pyridin-2-yl)-3-fluorobenzyl)-1-(oxetan-2-ylmethyl)-1H-benzo[d]imidazole-6-carboxylic acid], the EC50 at human GLP-1 receptor (setting [1]) is below 3.2 nM. At hERG, the inhibition at 2.5 h, 10 µM is -4.71%.
The like results for `O=C(O)c1ccc2nc(Cc3ccc(-c4cccc(OCc5ccc(Cl)cc5F)c4)cc3F)n(CC3CCCO3)c2c1` (stereo not shown) [Example 16, 2-((3′-(4-chloro-2-fluorobenzyloxy)-3-fluorobiphenyl-4-yl)methyl)-1-((tetrahydrofuran-2-yl)methyl)-1H-benzo[d]imidazole-6-carboxylic acid] were, in that order, 82 nM and -0.94%.
The like results for `COCCn1c(Cc2ccc(-c3cccc(OCc4ccc(C#N)cc4F)c3)cc2F)nc2ccc(C(=O)O)cc21` [Example 26, 2-((3′-(4-cyano-2-fluorobenzyloxy)-3-fluorobiphenyl-4-yl)methyl)-1-(2-methoxyethyl)-1H-benzo[d]imidazole-6-carboxylic acid] were, in that order, 270 nM and 2.43%.
Consider `COc1cccc(COc2cccc(-c3ccc(Cc4nc5ccc(C(=O)O)cc5n4CC4CCCO4)c(F)c3)n2)c1` (stereo not shown) [Example 81, 2-(2-fluoro-4-(6-(3-methoxybenzyloxy)pyridin-2-yl)benzyl)-1-((tetrahydrofuran-2-yl)methyl)-1H-benzo[d]imidazole-6-carboxylic acid], for which the EC50 on human GLP-1 receptor (setting [1]) came to 210 nM. The inhibition at 2.5 h, 10 µM on hERG was -43.5%.
The like results for `O=C(O)c1ccc2nc(Cc3c(F)cc(-c4cccc(OCc5ccc(Cl)cc5F)n4)cc3F)n(C[C@@H]3CCO3)c2c1` [Example 84, (S)-2-(4-(6-(4-chloro-2-fluorobenzyloxy)pyridin-2-yl)-2,6-difluorobenzyl)-1-(oxetan-2-ylmethyl)-1H-benzo[d]imidazole-6-carboxylic acid] were, in that order, 4 nM and -1.15%.
